One data set relates to GAL4USP + VP16CfEcR. Description: Transactivation of reporter gene through switch 1.5 in CHO cells. Type of data set: cell-based, Choristoneura fumiferana. The settings on record: switch 1.5, pGAL4RELuc. As for the experimental part: This construct was prepared in the same way as switch 1.3 except MmRXRDEF was replaced with CfUSPDEF (SEQ ID NO: 67).
(§1) The cells were harvested and reporter activity was assayed.
(§2) Cells were harvested 24–48 hr after adding ligands. […] Twenty μl of lysate was assayed.

Data set [1] has as its system GAL4CfEcRVP16. Description: Transactivation of reporter gene through switch 1.6 in CHO cells. The format is cell-based, Choristoneura fumiferana. As to conditions: switch 1.6, pGAL4RELuc. As for the experimental part:
(§3) This construct was prepared so that both the GAL4 DNABD and the VP16AD were placed on the same molecule. GAL4DNABD (SEQ ID NO: 43) and VP16AD (SEQ ID NO: 49) were fused to CfEcRDEF (SEQ ID NO: 3) at N-and C-termini respectively.
as §1, §2

Data set [2] has as its system GAL4CfEcRVP16. Description: Transactivation of reporter gene through switch 1.6 in 3T3 cells. Type of data set: cell-based, Choristoneura fumiferana. As to conditions: switch 1.6, pGAL4RELuc. As for the experimental part: as §3, §1
(§4) The cells were plated when they reached 50% confluency.
as §2

Data set [3] deals with VP16CfEcR. The data set is described as follows: Transactivation of reporter gene through switch 1.7 in 3T3 cells. The format is cell-based, Choristoneura fumiferana. As to conditions: switch 1.7, pEcRELuc. The method, then:
(§5) Six ecdysone response elements (“EcRE”; SEQ ID NO: 55) from the hsp27 gene were placed upstream of the promoter and a luciferase gene (SEQ ID NO: 66). This switch most probably uses endogenous RXR.
as §1, §4, §2

For data set [4], the system named is VP16CfEcR. The data set is described as follows: Transactivation of reporter gene through switch 1.7 in 293 cells. Type of data set: cell-based, Choristoneura fumiferana. As to conditions: switch 1.7, pEcRELuc. As for the experimental part:
as §5, §1
(§6) The same procedures described for CHO were followed for 293 cells except that the cells were plated in biocoated plates to avoid clumping.
as §2
(In general: Reporter assays use an easily measured gene product as a stand-in for the process of interest.)

In a further data set the test system is CfVgRXR + MmRXR. Description: Transactivation of reporter gene through switch 1.9 in 293 cells. The settings on record: switch 1.9, pIND(SP1)LacZ. Type of data set: cell-based, Choristoneura fumiferana; Mus musculus. As for the experimental part:
This example was prepared in the same way as switch 1.8 except DmEcR was replaced with a truncated CfEcR comprising a partial A/B domain and the complete CDEF domains [SEQ ID NO: 70 (polynucleotide) and SEQ ID NO: 71 (polypeptide)].
as §1, §6, §2

For the next data set, the system named is CfVgRXR. Description: Transactivation of reporter gene through switch 1.10 in CV1 cells. As to conditions: switch 1.10, pIND(SP1)LacZ. The format is cell-based, Choristoneura fumiferana. As for the experimental part: This example was prepared in the same way as switch 1.9 except MmRXR (SEQ ID NO: 62) was deleted.
as §1, §4
(§7) The same procedures described for NIH3T3 cells were followed for CV1 cells
as §2

For another data set, the system named is CfEcRDEF:MmRXRDEF. Description: CfEcR-based yeast two-hybrid assay, LacZ reporter pSH118. The format is cell-based, Choristoneura fumiferana; Mus musculus. From the text:
This construct results in a LexA:CfEcRDEF fusion that is expressed under the GAL1 promoter.
The D, E, and F domains from mouse (Mus musculus) RXR α (“MmRXRDEF”; SEQ ID NO: 22) were fused to a B42 transactivation domain (“B42AD”; SEQ ID NO: 53) and placed under the control of a GAL1 promoter (SEQ ID NO: 73) in pB42AD (CLONTECH). This construct results in a B42AD:MmRXR-DEF fusion that is expressed under the GAL 1 promoter.
A reporter plasmid comprising a β-galactosidase gene (LacZ; SEQ ID NO: 74) under the control of an 8XLexA operon response element (“8XlexAop”; SEQ ID NO: 75) operably linked to a minimal TATAA region from the GAL1 promoter (p8op-lacZ from CLONTECH) was used to monitor inducible gene expression.
Saccharomyces cerevisiae yeast cells (EGY48; CLONTECH) were used in these experiments. Cells were maintained in liquid culture media with the appropriate drop out amino acids. Standard methods for culture and maintenance of the cells were followed. […]
DNA constructs pSH118, CfEcRDEF, and MmRXRA/BCDEF, MmRXRDEF, or […] were transfected into yeast cells. […] A colony from each group of transformants was grown in the liquid culture in the presence of 0, 0.04, 0.2, 1, 5 and 25 μM GS™-E. The reporter activity was measured as described above 4 hours after adding ligand. Total RLUs were calculated and the numbers on the bars of FIG. 16 show maximum fold induction observed for that group (see FIGS. 16 and 17).
The best performing transformed yeast strain from the analysis above comprising CfEcRDEF:MmRXRDEF was used to determine the induction activity of three steroid ligands (20E, PonA, MurA) and four non-steroid ligands (GS™-E, RH2485, RH5992, RH5849) in this yeast-based format. The yeast cells were cultured in the presence of 0, 0.l, 1, 10, 50 and 100 μM ligands for four hours and the reporter activity was measured as described above. Total RLUs were calculated and the numbers on the top of the bars of FIG. 18 show the maximum fold induction for that group (see FIGS. 18 and 19).

The next data set concerns CfEcR. The data set is described as follows: Transactivation through CfEcR- versus DmEcR-based switches in mammalian cell lines (Tables 1–4). Also on record: species or system Choristoneura fumiferana. As for the experimental part:
as §2

For data set [5], the target named is T1, DmVgRXR + MmRXR (Drosophila melanogaster, UniProt P34021, E282G/G283S/G286V). The data set is described as follows: Transactivation of reporter gene through switch 1.8 in 293 cells. Type of data set: cell-based, Drosophila melanogaster; Mus musculus. Also on record: host or cells: CHO, NIH3T3, 293 or CV1 cells. The settings on record: switch 1.8, pIND(SP1)LacZ.
T1 sequence (P28700 whole entry, the tested form may be a part): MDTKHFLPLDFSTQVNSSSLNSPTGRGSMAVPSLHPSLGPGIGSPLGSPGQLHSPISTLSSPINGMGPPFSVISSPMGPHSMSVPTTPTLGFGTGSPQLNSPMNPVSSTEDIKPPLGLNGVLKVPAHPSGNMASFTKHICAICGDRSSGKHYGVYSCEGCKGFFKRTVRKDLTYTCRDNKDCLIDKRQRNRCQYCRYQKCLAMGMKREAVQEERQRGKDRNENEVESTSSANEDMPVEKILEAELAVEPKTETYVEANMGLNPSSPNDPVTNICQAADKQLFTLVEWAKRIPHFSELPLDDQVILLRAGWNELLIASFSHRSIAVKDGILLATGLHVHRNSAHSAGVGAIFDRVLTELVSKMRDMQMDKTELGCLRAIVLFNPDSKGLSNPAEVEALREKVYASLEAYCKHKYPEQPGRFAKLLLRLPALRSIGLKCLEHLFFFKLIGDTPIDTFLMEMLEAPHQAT
T1 sequence (P34021 whole entry E282G/G283S/G286V, the tested form may be a part): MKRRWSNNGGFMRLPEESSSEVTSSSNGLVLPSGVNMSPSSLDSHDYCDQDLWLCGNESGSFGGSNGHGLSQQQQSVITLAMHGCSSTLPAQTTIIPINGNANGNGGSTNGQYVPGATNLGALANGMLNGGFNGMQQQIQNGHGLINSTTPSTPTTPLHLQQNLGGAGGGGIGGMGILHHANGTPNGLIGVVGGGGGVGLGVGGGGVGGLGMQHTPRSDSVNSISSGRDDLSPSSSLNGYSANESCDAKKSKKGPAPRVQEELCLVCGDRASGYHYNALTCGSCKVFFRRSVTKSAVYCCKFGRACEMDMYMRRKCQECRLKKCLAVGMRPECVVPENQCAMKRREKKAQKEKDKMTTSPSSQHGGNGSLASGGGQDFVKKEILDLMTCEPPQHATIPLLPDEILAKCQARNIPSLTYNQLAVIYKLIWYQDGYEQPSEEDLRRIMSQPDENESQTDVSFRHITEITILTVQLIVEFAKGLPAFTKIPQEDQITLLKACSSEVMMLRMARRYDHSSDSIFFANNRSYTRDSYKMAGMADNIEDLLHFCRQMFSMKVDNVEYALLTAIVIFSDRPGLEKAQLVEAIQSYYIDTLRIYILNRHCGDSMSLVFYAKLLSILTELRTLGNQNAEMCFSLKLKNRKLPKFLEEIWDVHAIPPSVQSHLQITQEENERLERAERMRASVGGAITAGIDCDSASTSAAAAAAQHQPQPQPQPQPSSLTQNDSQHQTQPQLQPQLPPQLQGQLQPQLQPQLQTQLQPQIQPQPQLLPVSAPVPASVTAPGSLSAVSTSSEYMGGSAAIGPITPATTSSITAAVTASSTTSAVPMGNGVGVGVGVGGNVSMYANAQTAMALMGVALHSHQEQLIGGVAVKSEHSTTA
Description: (§8) This system was purchased from Invitrogen Corp., Carlsbad, California. It comprises a Drosophila melanogaster EcR (“DmEcR”) with a modified DNABD fused to VP16AD and placed under the control of a CMV promoter (SEQ ID NO: 68). Full length MmRXR (SEQ ID NO: 62) was placed under the control of the RSV promoter (SEQ ID NO: 69). The reporter, pIND(SP1)LacZ, contains five copies of a modified ecdysone response element (“EcRE”, E/GRE), three copies of an SPI enhancer, and a minimal heat shock promoter, all of which were placed upstream to the LacZ reporter gene.
as §1, §6, §2

Data set [6] concerns the target T1, DmVgRXR + MmRXR. Description: Transactivation of reporter gene through switch 1.8 in CV1 cells. Type of data set: cell-based, Drosophila melanogaster; Mus musculus. Also noted: host or cells: CHO, NIH3T3, 293 or CV1 cells. The settings on record: switch 1.8, pIND(SP1)LacZ.
Description: as §8, §1, §4, §7, §2

For the molecule `CCc1c(OC)cccc1C(=O)NN(C(=O)c1cc(C)cc(C)c1)C(C)(C)C` [N-(2-ethyl-3-methoxybenzoyl)-N′-(3,5-dimethylbenzoyl)-N′-t-butylhydrazine], the figures for the “Mean Fold Activation with 50 μM N-(2-ethyl-3-methoxybenzoyl)-N′-(3,5-dimethylbenzoyl)-N′-t-butylhydrazine” value with GAL4USP + VP16CfEcR and with GAL4CfEcRVP16 [1] were 2 fold and 9 fold, respectively. Besides, the “Mean Fold Activation Through N-(2-ethyl-3-methoxybenzoyl)-N′-(3,5-dimethylbenzoyl)-N′-t-butylhydrazine” value with GAL4CfEcRVP16 [2] came to 7 fold; in the data set on VP16CfEcR [3] it was 1 fold; in the data set on VP16CfEcR [4], 2 fold; in the data set on CfVgRXR + MmRXR it was 12 fold; with CfVgRXR it was 1 fold; at DmVgRXR + MmRXR [5], 21 fold. For the same molecule, the “Mean Fold Activation Through N-(2-ethyl-3-methoxybenzoyl)-N′-(3,5-dimethylbenzoyl)-N′-t-butylhydrazine” value on DmVgRXR + MmRXR [6] was 12 fold. Further, the Fold induction entry in the data set with CfEcRDEF:MmRXRDEF (yeast cells, CfEcRDEF/MmRXRDEF, 0–25 μM, 4 hours after adding ligand) is listed as “approximately 1800 fold”. Further, in the data set on CfEcRDEF:MmRXRDEF (yeast strain comprising CfEcRDEF:MmRXRDEF, 0–100 μM ligand for four hours, FIGS. 18 and 19), the “Induction of gene expression (relative performance of ligands)” value is on record as “induce gene expression better than any other ligand tested”. Also, the “Potency as activator of CfEcR compared to DmEcR” value in the data set on CfEcR is given as “more potent activators of CfEcR as compared to Drosophila melanogaster EcR (DmEcR)”.
